Target: mTOR/GbL/Raptor (mTORC1) (Homo sapiens, UniProt P42345)
Assay: mTOR/GbL/Raptor (mTORC1) ELISA assay
Format: biochemical
Settings: phosphorylation of 4E-BP1; 0.2 nM mTORC1, 10 μM ATP; read-out: IC50 in this assay (mTORC1 ELISA)
How it was run: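 Human mTORC1 (0.2 nM) phosphorylated 50 nM His-tagged 4E-BP1 with 10 µM ATP in HEPES pH 7.2 containing 10 mM MnCl2, 120 min at ambient temperature. Substrate was captured on Ni-chelate plates; phospho-4E-BP1 was detected by primary antibody and HRP secondary with luminescence.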

SMILES | IC50
Cc1nc2cc(-c3ccc4c(c3)CN(c3nc(CN(C)C)nc(C)c3-c3ccccc3)CCO4)ccc2[nH]1 [Example 681, N,N-dimethyl-1-{4-methyl-6-[7-(2-methyl-1H-benzimidazol-5-yl)-2,3-dihydro-1,4-benzoxazepin-4(5H)-yl]-5-phenylpyrimidin-2-yl}methanamine] | 50 to 250 nM
Cc1nc2ccc(-c3ccc4c(c3)CN(c3cc(C(F)(F)F)nc5ccccc35)CCO4)cc2[nH]1 [Example 99, 7-(2-methyl-1H-benzimidazol-6-yl)-4-[2-(trifluoromethyl)quinolin-4-yl]-2,3,4,5-tetrahydro-1,4-benzoxazepine] | 50 to 250 nM
CC1(C)CCc2nc(CC#N)nc(N3CCOc4ccc(-c5cnc6sc(N)nc6c5)cc4C3)c2C1 [Example 684, {4-[7-(2-amino[1,3]thiazolo[5,4-b]pyridin-6-yl)-2,3-dihydro-1,4-benzoxazepin-4(5H)-yl]-6,6-dimethyl-5,6,7,8-tetrahydroquinazolin-2-yl}acetonitrile] | ≤ 10 nM
Cc1nc2ccc(-c3ccc4c(c3)CN(c3ncnc(C)c3Cc3cc(F)cc(Cl)c3)CCO4)cc2[nH]1 [Example 83, 4-{5-[(3-chloro-5-fluorophenyl)methyl]-6-methylpyrimidin-4-yl}-7-(2-methyl-1H-benzimidazol-6-yl)-2,3,4,5-tetrahydro-1,4-benzoxazepine] | ≤ 10 nM
CC1(C)CCc2ncnc(N3CCOc4ccc(-c5cnc(N)c(S(=O)(=O)N6CC7(CNC7)C6)c5)cc4C3)c2C1 [Example 432, 3-(2,6-diazaspiro[3.3]hept-2-ylsulfonyl)-5-[4-(6,6-dimethyl-5,6,7,8-tetrahydroquinazolin-4-yl)-2,3,4,5-tetrahydro-1,4-benzoxazepin-7-yl]pyridin-2-amine] | 10 to 50 nM
CC(=O)OCc1nc(C)c(C(C)C)c(N2CCOc3ccc(-c4ccc5nc(C)[nH]c5c4)cc3C2)n1 [Example 686, {4-methyl-6-[7-(2-methyl-1H-benzimidazol-5-yl)-2,3-dihydro-1,4-benzoxazepin-4(5H)-yl]-5-(1-methylethyl)pyrimidin-2-yl}methyl acetate] | 10 to 50 nM
Cc1c(N2CCOc3ccc(-c4cnc5nc(C6CC6)[nH]c5c4)cc3C2)ncnc1N(C)[C@@H](C)c1ccccc1 [Example 536, 6-[7-(2-cyclopropyl-1H-imidazo[4,5-b]pyridin-6-yl)-2,3-dihydro-1,4-benzoxazepin-4(5H)-yl]-N,5-dimethyl-N-[(1S)-1-phenylethyl]pyrimidin-4-amine] | 50 to 250 nM
CC1(C)CCc2ncnc(N3CCOc4ccc(-c5cnc(N)c(S(=O)(=O)N[C@H]6CCNC6)c5)cc4C3)c2C1 [Example 390] | 10 to 50 nM
Cc1nc(Nc2ccccc2)c(C)c(N2CCOc3ccc(-c4ccc5nc[nH]c5c4)cc3C2)n1 [Example 529, 6-[7-(1H-benzimidazol-6-yl)-2,3-dihydro-1,4-benzoxazepin-4(5H)-yl]-2,5-dimethyl-N-phenylpyrimidin-4-amine] | 250 to 1000 nM
CN1CCN(S(=O)(=O)c2cc(-c3ccc4c(c3)CN(c3ncnc5c3CC(C)(C)CC5)CCO4)cnc2N)CC1 [Example 516, 5-[4-(6,6-dimethyl-5,6,7,8-tetrahydroquinazolin-4-yl)-2,3,4,5-tetrahydro-1,4-benzoxazepin-7-yl]-3-[(4-methylpiperazin-1-yl)sulfonyl]pyridin-2-amine] | 50 to 250 nM
Cc1ncnc(N2CCOc3ccc(-c4cnc5sc(N)nc5c4)cc3C2)c1Cc1ccc(F)cc1 [Example 217, 6-(4-{5-[(4-fluorophenyl)methyl]-6-methylpyrimidin-4-yl}-2,3,4,5-tetrahydro-1,4-benzoxazepin-7-yl)[1,3]thiazolo[5,4-b]pyridin-2-amine] | ≤ 10 nM
CC1(C)CCc2ncnc(N3CCOc4ccc(-c5cnc(N)c(S(=O)(=O)N6CCC(N)CC6)c5)cc4C3)c2C1 [Example 446, 3-[(4-aminopiperidin-1-yl)sulfonyl]-5-[4-(6,6-dimethyl-5,6,7,8-tetrahydroquinazolin-4-yl)-2,3,4,5-tetrahydro-1,4-benzoxazepin-7-yl]pyridin-2-amine] | 10 to 50 nM
Cc1ncnc(N2CCOc3ccc(-c4cnc(N)cn4)cc3C2)c1Cc1ccc(F)cc1 [Example 151, 5-(4-{5-[(4-fluorophenyl)methyl]-6-methylpyrimidin-4-yl}-2,3,4,5-tetrahydro-1,4-benzoxazepin-7-yl)pyrazin-2-amine] | 50 to 250 nM
c1ccc2c(N3CCOc4ccc(-c5ccc6c(c5)CCO6)cc4C3)ccnc2c1 [Example 135, 7-(2,3-dihydro-1-benzofuran-5-yl)-4-quinolin-4-yl-2,3,4,5-tetrahydro-1,4-benzoxazepine] | 1000 to 2000 nM
Cc1nc2ncc(-c3ccc4c(c3)CN(c3ncnc5c3CCC(C)(c3ccccc3)C5)CCO4)cc2[nH]1 (stereo not drawn) [Example 558, 7-(2-methyl-1H-imidazo[4,5-b]pyridin-6-yl)-4-(7-methyl-7-phenyl-5,6,7,8-tetrahydroquinazolin-4-yl)-2,3,4,5-tetrahydro-1,4-benzoxazepine] | ≤ 10 nM
CCC(N)CNS(=O)(=O)c1cc(-c2ccc3c(c2)CN(c2ncnc4c2CC(C)(C)CC4)CCO3)cnc1N (stereo not drawn) [Example 408, 2-amino-N-(2-aminobutyl)-5-[4-(6,6-dimethyl-5,6,7,8-tetrahydroquinazolin-4-yl)-2,3,4,5-tetrahydro-1,4-benzoxazepin-7-yl]pyridine-3-sulfonamide] | 10 to 50 nM
COCCNS(=O)(=O)c1cc(-c2ccc3c(c2)CN(c2ncnc4c2CC(C)(C)CC4)CCO3)cnc1N [Example 392, 2-amino-5-[4-(6,6-dimethyl-5,6,7,8-tetrahydroquinazolin-4-yl)-2,3,4,5-tetrahydro-1,4-benzoxazepin-7-yl]-N-[2-(methyloxy)ethyl]pyridine-3-sulfonamide] | 50 to 250 nM

The next lines start with the values.

IC50 | SMILES
10 to 50 nM | CC[C@H]1CCc2c(nc(C)nc2N2CCOc3ccc(-c4cnc5nc(C)[nH]c5c4)cc3C2)C1 [Example 487, 4-[(7S)-7-ethyl-2-methyl-5,6,7,8-tetrahydroquinazolin-4-yl]-7-(2-methyl-1H-imidazo[4,5-b]pyridin-6-yl)-2,3,4,5-tetrahydro-1,4-benzoxazepine]
50 to 250 nM | CCNc1nc2ccc(-c3ccc4c(c3)CN(c3nc(C)nc5ccccc35)CCO4)cc2[nH]1 [Example 228, N-ethyl-6-[4-(2-methylquinazolin-4-yl)-2,3,4,5-tetrahydro-1,4-benzoxazepin-7-yl)-1H-benzimidazol-2-amine]
≤ 10 nM | CNS(=O)(=O)c1cc(-c2ccc3c(c2)CN(c2ncnc4c2CC(C)(C)CC4)CCO3)cnc1N [Example 397, 2-amino-5-[4-(6,6-dimethyl-5,6,7,8-tetrahydroquinazolin-4-yl)-2,3,4,5-tetrahydro-1,4-benzoxazepin-7-yl]-N-methylpyridine-3-sulfonamide]
≤ 10 nM | CC1(C)CCc2ncnc(N3CCOc4ccc(-c5cnc(N)c(S(N)(=O)=O)c5)cc4C3)c2C1 [Example 399, 2-amino-5-[4-(6,6-dimethyl-5,6,7,8-tetrahydroquinazolin-4-yl)-2,3,4,5-tetrahydro-1,4-benzoxazepin-7-yl]pyridine-3-sulfonamide]
≥ 2000 nM | COCc1nc2ccc(-c3ccc4c(c3)CN(c3ccnc5ccccc35)CCO4)cc2[nH]1 [Example 196, 7-{2-[(methyloxy)methyl]-1H-benzimidazol-6-yl}-4-quinolin-4-yl-2,3,4,5-tetrahydro-1,4-benzoxazepine]
50 to 250 nM | CCNc1nc2ccc(-c3ccc4c(c3)CN(c3nc(C)nc(Nc5ccccc5)c3C)CCO4)cc2[nH]1 [Example 538, 6-{4-[2,5-dimethyl-6-(phenylamino)pyrimidin-4-yl]-2,3,4,5-tetrahydro-1,4-benzoxazepin-7-yl}-N--ethyl-1H-benzimidazol-2-amine]
1000 to 2000 nM | CCCc1nc2ccc(-c3ccc4c(c3)CN(c3ccnc5ccccc35)CCO4)cc2[nH]1 [Example 197, 7-(2-propyl-1H-benzimidazol-6-yl)-4-quinolin-4-yl-2,3,4,5-tetrahydro-1,4-benzoxazepine]
250 to 1000 nM | CCCOc1ccc2ncnc(N3CCOc4ccc(-c5ccc6nc(C)[nH]c6c5)cc4C3)c2c1 [Example 162, 7-(2-methyl-1H-benzimidazol-6-yl)-4-[6-(propyloxy)quinazolin-4-yl]-2,3,4,5-tetrahydro-1,4-benzoxazepine]
50 to 250 nM | CCNc1nc2ccc(-c3ccc4c(c3)CN(c3ncnc5cc(F)ccc35)CCO4)cc2[nH]1 [Example 281, N-ethyl-6-[4-(7-fluoroquinazolin-4-yl)-2,3,4,5-tetrahydro-1,4-benzoxazepin-7-yl]-1H-benzimidazol-2-amine]
250 to 1000 nM | CCSc1nc2c(c(N3CCOc4ccc(-c5ccc6nc(C)[nH]c6c5)cc4C3)n1)CCC2 [Example 54, 4-[2-(ethylthio)-6,7-dihydro-5H-cyclopenta[d]pyrimidin-4-yl]-7-(2-methyl-1H-benzimidazol-6-yl)-2,3,4,5-tetrahydro-1,4-benzoxazepine]
≤ 10 nM | CC[C@H]1CCc2c(ncnc2N2CCOc3ccc(-c4cnc5nc(C)[nH]c5c4)cc3C2)C1 [Example 488, 4-[(7S)-7-ethyl-5,6,7,8-tetrahydroquinazolin-4-yl]-7-(2-methyl-1H-imidazo[4,5-b]pyridin-6-yl)-2,3,4,5-tetrahydro-1,4-benzoxazepine]
10 to 50 nM | CCS(=O)(=O)c1cc(-c2ccc3c(c2)CN(c2ncnc4c2CC(C)(C)CC4)CCO3)cnc1N [Example 510, 5-[4-(6,6-dimethyl-5,6,7,8-tetrahydroquinazolin-4-yl)-2,3,4,5-tetrahydro-1,4-benzoxazepin-7-yl]-3-(ethylsulfonyl)pyridin-2-amine]
≤ 10 nM | CCc1nc2ccc(-c3ccc4c(c3)CN(c3ncnc5c3CC(C)(C)CC5)CCO4)cc2[nH]1 [Example 254, 4-(6,6-dimethyl-5,6,7,8-tetrahydroquinazolin-4-yl)-7-(2-ethyl-1H-benzimidazol-6-yl)-2,3,4,5-tetrahydro-1,4-benzoxazepine]

From US8648066B2 (Exelixis, Inc., priority 2009, dated 2014)
